These results are taken from PubChem BioAssay (NCI).

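96-well plates; 48 h exposure; 5 concentrations. Endpoints by linear interpolation between flanking doses. Not reached: highest tested concentration assigned. GI50: concentration for 50% inhibition of growth. TGI marks complete inhibition of growth.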

In this assay the test system is MDA-MB-468 breast. Put plainly: DTP human tumour cell line panel, 48 h.
Regarding `O=C(/C=C/c1cccs1)Nc1ncc(Cc2ccccc2F)s1`, the GI50 (commonly the concentration that inhibits growth by half) is 0.364 µM and the TGI – broadly, the concentration at which net growth stops – is > 100 µM.

Consider `COc1cc(Nc2ncc(-c3ccccc3)o2)cc(OC)c1OC`, for which the GI50 was 0.0744 µM and the TGI worked out at 1.1 µM.

Consider `CC(C)=CCC[C@](C)(O)[C@H]1CC[C@]2(C)[C@@H]1CC[C@@H]1[C@@]3(C)CC[C@H](OC(=O)CCC(=O)O)C(C)(C)[C@@H]3CC[C@]12C`, for which the GI50 is 22.3 µM and the TGI was determined as 96.1 µM.

As for `CCc1ccc(/C=C2/SC(=S)NC2=O)cc1`, the GI50 was 20.3 µM and the TGI was 69.4 µM.

Turning to `NC(=NC1C2CC3CC(C2)CC1C3)Nc1ccc(I)cc1` (stereo not drawn), the GI50 is 1.96 µM and the TGI is 4.68 µM.

As for `CCNC1=CC(=O)c2ncccc2C1=O`, the GI50 was 2.11 µM and the TGI was found to be 7.55 µM.

On to `Cc1ccc(Nc2ccnc(Nc3cccc(C(N)=O)c3)n2)cc1O`, for which the GI50 was 2.62 µM and the TGI turned out to be 9.56 µM.

Turning to `CCn1cc(C2NC(=O)c3cc(F)ccc3N2)c2cccc(Cl)c21` (stereo not drawn), the GI50 is 0.292 µM and the concentration for total growth inhibition (TGI) turned out to be 6.13 µM.

With `O=C(Nc1ccc(-c2nc3ccc(NC(=O)c4ccc(Cl)cc4)cc3[nH]2)cc1)c1ccc(Cl)cc1`, the GI50 is 2.58 µM and the TGI was determined as 8.45 µM.

With `O=C(O)c1c(Cl)c(Cl)c(Cl)c(Cl)c1-c1c2cc(I)c(=O)c(I)c-2oc2c(I)c(O)c(I)cc12`, the GI50 is 36.9 µM and the TGI came out at 76.2 µM.

With `O=C(O)CCN1C(=O)/C(=C/C(Cl)=C/c2ccccc2)SC1=S`, the GI50 is 1.2 µM and the TGI stood at 2.98 µM.

Turning to `N#CC(C#N)=C/C=C/c1cccc([N+](=O)[O-])c1`, the GI50 was 0.767 µM and the TGI came out at 2.28 µM.

Take `C=C(C)[C@@H]1CC[C@]2(C#N)CC[C@]3(C)[C@H](CC[C@@H]4[C@@]5(C)CCCNC(C)(C)[C@@H]5CC[C@]43C)[C@@H]12`: the GI50 was 1.75 µM and the TGI was 3.21 µM.

Regarding `O=C(N/N=C\c1cc(Cl)ccc1O)N/N=C/c1cc(Cl)ccc1O`, the GI50 was 2.58 µM and the TGI was > 100 µM.

For the compound `Brc1ccc2[nH]cc(-c3nc(-c4c[nH]c5ccncc45)cs3)c2c1`, the GI50 was 1.77 µM and the TGI was determined as 3.45 µM.

Regarding `CCN(CC)c1ccc(/C=N\NC(=O)c2cccc(Nc3ccnc(C(F)(F)F)c3)c2)c(O)c1`, the GI50 is 0.239 µM and the TGI turned out to be 3.51 µM.

With `NC(=O)c1ccc(-c2c3ccccc3cc3c2ccc2ccccc23)cc1`, the GI50 was 1.34 µM and the TGI is 6.97 µM.

With `Cn1cc(/C=C2\C(=O)Nc3cccnc32)c2ccccc21`, the GI50 is 12 µM and the TGI was > 25 µM.

With `CCOc1ccc(N2C(N)=NC(N)=NC2(C)C)cc1`, the GI50 was 20.8 µM and the TGI was > 100 µM.

Take `O=c1c2c(=NCCCN3CCCC3)cc3c(=O)n(CCCN4CCCC4)c(=O)c4c(NCCCN5CCCC5)cc(c(O)n1CCCN1CCCC1)c2c4-3`: the GI50 was 1.74 µM and the TGI was 4.68 µM.

As for `Fc1cc(Nc2ccc3c(OCCCN4CCOCC4)cccc3n2)ccc1Cl`, the GI50 is 2.08 µM and the TGI came out at 4.43 µM.

Take `COc1cc([N+](=O)[O-])c2ncccc2c1O`: the GI50 is 35.6 µM and the TGI is > 100 µM.

`Cc1cc(C#Cc2ccccc2)ccc1-n1c(/C=C/c2ccc(O)cc2)nc2ccccc2c1=O`: the GI50 was 3.78 µM and the TGI is > 100 µM.

On to `COc1cc(C(=O)c2c(-c3ccccc3)oc3ccccc23)cc(OC)c1O`, for which the GI50 was 0.362 µM and the TGI turned out to be 3.48 µM.

As to `COCCn1cc(-c2csc(-c3c[nH]c4ccc(F)cc34)n2)c2cccnc21`, the GI50 is 2.44 µM and the TGI was determined as 8.51 µM.

On to `Fc1ccc(-c2c(-c3ccncc3)n(CCN3CCOCC3)c3cccnc23)cc1`, for which the GI50 was > 25 µM and the TGI is > 25 µM.

`COc1cc(SC)ccc1C(=O)N1CCCC(C)C1` (stereo not drawn): the GI50 was 26.1 µM and the TGI was > 100 µM.

Regarding `COc1ccccc1OCC(O)CO` (stereo not drawn), the GI50 was > 100 µM and the TGI was > 100 µM.

For `CN1C=CN(Cc2ccc(-c3ccccn3)nc2)[CH-]1.CN1C=CN(Cc2ccc(-c3ccccn3)nc2)[CH-]1.[Au+3]`, the GI50 was 0.337 µM and the TGI stood at 2.53 µM.
